The results in this text go back to ChEMBL document CHEMBL2169741, “Analysis of the discriminative inhibition of mammalian digestive lipases by 3-phenyl substituted 1,3,4-oxadiazol-2(3H)-ones” (Eur J Med Chem, 2012).

As usually defined, the inhibition is the share of the control response that was lost under treatment.

Assay [1] concerns the target T1, Bile salt-activated lipase (Homo sapiens) (UniProt P19835).
T1 sequence (whole entry): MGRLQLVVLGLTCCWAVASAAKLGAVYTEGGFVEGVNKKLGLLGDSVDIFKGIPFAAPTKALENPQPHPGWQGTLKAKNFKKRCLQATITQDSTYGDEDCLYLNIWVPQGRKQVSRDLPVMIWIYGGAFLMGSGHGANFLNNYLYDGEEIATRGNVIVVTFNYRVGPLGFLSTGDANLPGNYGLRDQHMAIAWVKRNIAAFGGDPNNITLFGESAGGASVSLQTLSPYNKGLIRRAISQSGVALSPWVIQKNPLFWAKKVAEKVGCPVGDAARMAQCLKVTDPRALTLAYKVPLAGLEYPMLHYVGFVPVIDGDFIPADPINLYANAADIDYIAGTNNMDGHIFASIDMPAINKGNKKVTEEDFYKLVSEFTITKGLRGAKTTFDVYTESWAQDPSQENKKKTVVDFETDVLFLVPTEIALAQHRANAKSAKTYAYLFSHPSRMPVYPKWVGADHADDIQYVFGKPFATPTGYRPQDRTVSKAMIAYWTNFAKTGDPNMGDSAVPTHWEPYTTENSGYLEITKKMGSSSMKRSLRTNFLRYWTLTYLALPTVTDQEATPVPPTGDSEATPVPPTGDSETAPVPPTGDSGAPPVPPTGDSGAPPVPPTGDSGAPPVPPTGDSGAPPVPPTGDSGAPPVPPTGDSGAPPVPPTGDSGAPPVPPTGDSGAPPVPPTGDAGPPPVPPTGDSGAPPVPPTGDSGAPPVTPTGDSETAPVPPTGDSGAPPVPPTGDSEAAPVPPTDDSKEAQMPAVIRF
The assay is described as follows: Inhibition of human pancreatic CEH at 20 molar excess after 30 mins.

The target in assay [2] is T1, Bile salt-activated lipase (Homo sapiens). The assay is described as follows: Inhibition of human pancreatic CEH at 2 molar excess after 30 mins.
For assay [3], the target named is T2, Gastric triacylglycerol lipase (Canis lupus familiaris) (UniProt P80035).
T2 sequence (whole entry): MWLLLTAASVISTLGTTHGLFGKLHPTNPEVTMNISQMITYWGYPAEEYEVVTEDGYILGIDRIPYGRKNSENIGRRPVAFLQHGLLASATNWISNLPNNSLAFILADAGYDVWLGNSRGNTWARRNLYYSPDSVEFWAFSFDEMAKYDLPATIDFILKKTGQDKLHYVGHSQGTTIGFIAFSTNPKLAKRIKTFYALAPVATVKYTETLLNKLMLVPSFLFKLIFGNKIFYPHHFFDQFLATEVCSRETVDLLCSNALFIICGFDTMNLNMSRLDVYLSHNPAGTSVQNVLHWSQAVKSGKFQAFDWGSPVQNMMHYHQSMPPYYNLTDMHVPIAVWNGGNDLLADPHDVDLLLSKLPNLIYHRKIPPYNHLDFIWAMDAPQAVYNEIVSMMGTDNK
Kind of assay: Inhibition of recombinant DGL expressed in transgenic maize at 2 molar excess after 30 mins in presence of NaTDC.

In assay [4] the target is T3, Pancreatic lipase-related protein 2 (Cavia porcellus) (UniProt P81139).
T3 sequence (whole entry): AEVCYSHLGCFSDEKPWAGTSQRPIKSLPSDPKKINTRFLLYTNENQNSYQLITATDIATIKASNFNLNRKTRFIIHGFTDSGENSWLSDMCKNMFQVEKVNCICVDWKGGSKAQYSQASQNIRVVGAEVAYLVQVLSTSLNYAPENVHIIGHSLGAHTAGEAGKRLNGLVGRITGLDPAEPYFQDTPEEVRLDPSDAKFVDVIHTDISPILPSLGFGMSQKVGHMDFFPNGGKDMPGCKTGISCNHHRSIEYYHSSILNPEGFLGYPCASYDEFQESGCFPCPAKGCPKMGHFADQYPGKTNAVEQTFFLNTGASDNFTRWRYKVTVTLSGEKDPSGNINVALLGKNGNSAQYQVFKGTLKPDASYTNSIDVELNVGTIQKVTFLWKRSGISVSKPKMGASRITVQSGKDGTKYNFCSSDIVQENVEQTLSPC
The assay is described as follows: Inhibition of recombinant GPLRP2 expressed in Aspergillus oryzae at 20 molar excess after 30 mins in presence of NaTDC.

Assay [5] has as its target T4, Pancreatic triacylglycerol lipase (Sus scrofa) (UniProt P00591).
T4 sequence (whole entry): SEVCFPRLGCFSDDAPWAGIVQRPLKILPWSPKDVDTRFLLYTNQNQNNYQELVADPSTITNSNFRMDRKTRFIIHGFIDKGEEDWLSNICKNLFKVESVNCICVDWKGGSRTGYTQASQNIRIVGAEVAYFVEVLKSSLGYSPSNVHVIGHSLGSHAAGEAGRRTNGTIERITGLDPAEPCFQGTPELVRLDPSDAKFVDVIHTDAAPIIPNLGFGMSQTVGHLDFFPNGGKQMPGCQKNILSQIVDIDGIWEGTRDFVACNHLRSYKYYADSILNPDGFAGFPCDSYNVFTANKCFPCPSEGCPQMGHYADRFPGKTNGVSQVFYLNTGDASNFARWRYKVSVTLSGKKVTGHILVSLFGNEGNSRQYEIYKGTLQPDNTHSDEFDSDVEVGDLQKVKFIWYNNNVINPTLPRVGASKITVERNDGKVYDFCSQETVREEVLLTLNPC
Kind of assay: Inhibition of PPL at 100 molar excess after 30 mins in presence of NaTDC.

The target in assay [6] is T5, Pancreatic lipase-related protein 2 (Homo sapiens) (UniProt P54317).
T5 sequence (whole entry): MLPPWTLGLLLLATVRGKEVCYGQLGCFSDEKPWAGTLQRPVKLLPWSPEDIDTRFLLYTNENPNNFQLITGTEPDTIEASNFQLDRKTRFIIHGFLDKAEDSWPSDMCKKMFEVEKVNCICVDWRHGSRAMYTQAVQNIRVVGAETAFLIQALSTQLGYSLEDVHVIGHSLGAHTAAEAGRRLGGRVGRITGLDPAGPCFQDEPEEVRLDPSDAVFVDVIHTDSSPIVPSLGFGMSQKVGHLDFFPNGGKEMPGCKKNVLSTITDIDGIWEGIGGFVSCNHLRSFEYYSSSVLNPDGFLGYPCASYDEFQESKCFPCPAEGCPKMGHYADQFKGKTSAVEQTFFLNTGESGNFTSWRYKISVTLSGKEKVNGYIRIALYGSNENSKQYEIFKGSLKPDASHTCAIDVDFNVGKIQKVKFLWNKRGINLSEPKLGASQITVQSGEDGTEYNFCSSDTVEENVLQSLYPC
Kind of assay: Inhibition of recombinant HPLRP2 expressed in Pichia pastoris after 30 mins in presence of NaTDC.

For assay [7], the target named is T2, Gastric triacylglycerol lipase (Canis lupus familiaris). Kind of assay: Inhibition of recombinant DGL expressed in transgenic maize assessed as hydrolysis of trybutyrin emulsion at 10 to 40 molar excess after 30 mins in presence of NaTDC.

Calls of active or inactive are those of the source. No cut-off for these calls is given here.

For the compound `COc1nn(-c2cccc(Oc3ccccc3)c2)c(=O)o1`, the inhibition worked out at 84.7% in assay [1]; 54.5% in assay [2]; 10.9% in assay [3]; 90.4% in assay [4]; 85.1% in assay [5]. For the same compound, the XI50 in assay [6] was found to be 0.62 molar excess. Also, the inhibition result in assay [7] is “Active”.
On to `CCCCCCCCCCC[C@@H](C[C@@H]1OC(=O)[C@H]1CCCCCC)OC(=O)[C@H](CC(C)C)NC=O`, for which the inhibition was 83.6% in assay [1]; 80.1% in assay [2]; 51.5% in assay [3]; 87.3% in assay [4]; 85.5% in assay [5]; 60% in assay [7]. The XI50 in assay [6] was 0.77 molar excess.
For `COc1nn(-c2ccccc2)c(=O)o1`, the inhibition was determined as 81.3% in assay [1]; 71.6% in assay [2]; 1.4% in assay [3]; 86% in assay [4]; 10.7% in assay [5]. In assay [6], the XI50 was 2.27 molar excess.
Take `COc1nn(-c2ccc(Oc3ccccc3)cc2)c(=O)o1`: the inhibition is 78.6% in assay [1]; 77.1% in assay [2]; 12.4% in assay [3]; 23.6% in assay [4]; 72.9% in assay [5]. Moreover, the XI50 in assay [6] was 1.04 molar excess. For the same compound, the inhibition entry in assay [7] is “Active”.
